Legend:
[1] = Cytotoxicity against human OVCAR5 cells assessed as cell growth at 10^-8 M after 24 hrs by SRB assay; assay type: functional; settings: OVCAR-5, 24 h, read-out: Activity
[2] = Cytotoxicity against human PC3 cells assessed as cell growth at 10^-8 M after 24 hrs by SRB assay; assay type: functional; settings: PC-3, 24 h, read-out: Activity
K562 = experiment: Cytotoxicity against human K562 cells assessed as cell growth at 10^-7 M after 24 hrs by SRB assay; assay type: functional; settings: K562, 24 h, read-out: Activity
[3] = Cytotoxicity against human RPMI8226 cells assessed as cell growth at 10^-4 M after 24 hrs by SRB assay; assay type: functional; settings: RPMI-8226, 24 h, read-out: Activity
EKVX = experiment: Cytotoxicity against human EKVX cells assessed as cell growth at 10^-4 M after 24 hrs by SRB assay; assay type: functional; settings: read-out: Activity
[4] = Cytotoxicity against human Caki1 cells assessed as cell growth at 10^-7 M after 24 hrs by SRB assay; assay type: functional; settings: CAKI-1, 24 h, read-out: Activity
[5] = Cytotoxicity against human HOP92 cells after 24 hrs by SRB assay; assay type: functional, cell-based; settings: HOP-92, 24 h
[6] = Cytotoxicity against human COLO205 cells after 24 hrs by SRB assay; assay type: functional, cell-based; settings: COLO 205, 24 h
[7] = Cytotoxicity against human HCT15 cells after 24 hrs by SRB assay; assay type: functional, cell-based; settings: HCT-15, 24 h
U-251 = experiment: Cytotoxicity against human U251 cells after 24 hrs by SRB assay; assay type: functional; settings: U-251, 24 h
NCI-H322M = experiment: Cytotoxicity against human NCI-H322M cells assessed as cell growth at 10^-4 M after 24 hrs by SRB assay; assay type: functional; settings: read-out: Activity
[8] = Cytotoxicity against human SKOV3 cells assessed as cell growth at 10^-4 M after 24 hrs by SRB assay; assay type: functional; settings: SK-OV-3, 24 h, read-out: Activity
A498 = experiment: Cytotoxicity against human A498 cells assessed as cell growth at 10^-4 M after 24 hrs by SRB assay; assay type: functional; settings: A498, 24 h, read-out: Activity
[9] = Cytotoxicity against human Hs 578T cells assessed as cell growth at 10^-4 M after 24 hrs by SRB assay; assay type: functional; settings: read-out: Activity
HT-29 = experiment: Cytotoxicity against human HT-29 cells assessed as cell growth at 10^-6 M after 24 hrs by SRB assay; assay type: functional; settings: HT-29, 24 h, read-out: Activity
KM12 [10] = experiment: Cytotoxicity against human KM12 cells assessed as cell growth at 10^-6 M after 24 hrs by SRB assay; assay type: functional; settings: KM12, 24 h, read-out: Activity
[11] = Cytotoxicity against human SW620 cells assessed as cell growth at 10^-6 M after 24 hrs by SRB assay; assay type: functional; settings: SW-620, 24 h, read-out: Activity
[12] = Cytotoxicity against human SF295 cells assessed as cell growth at 10^-6 M after 24 hrs by SRB assay; assay type: functional; settings: SF-295, 24 h, read-out: Activity
[13] = Cytotoxicity against human SNB19 cells assessed as cell growth at 10^-6 M after 24 hrs by SRB assay; assay type: functional; settings: SNB-19, 24 h, read-out: Activity
[14] = Cytotoxicity against human SNB75 cells assessed as cell growth at 10^-6 M after 24 hrs by SRB assay; assay type: functional; settings: SNB-75, 24 h, read-out: Activity
[15] = Cytotoxicity against human Caki1 cells assessed as cell growth at 10^-6 M after 24 hrs by SRB assay; assay type: functional; settings: CAKI-1, 24 h, read-out: Activity
MDA-MB-231 = experiment: Cytotoxicity against human MDA-MB-231 cells assessed as cell growth at 10^-6 M after 24 hrs by SRB assay; assay type: functional; settings: MDA-MB-231, 24 h, read-out: Activity
SK-MEL-2 = experiment: Cytotoxicity against human SK-MEL-2 cells after 24 hrs by SRB assay; assay type: functional; settings: SK-MEL-2, 24 h
SK-MEL-28 = experiment: Cytotoxicity against human SK-MEL-28 cells after 24 hrs by SRB assay; assay type: functional, cell-based; settings: SK-MEL-28, 24 h
ACHN = experiment: Cytotoxicity against human ACHN cells after 24 hrs by SRB assay; assay type: functional
CCRF-CEM = experiment: Cytotoxicity against human CCRF-CEM cells after 24 hrs by SRB assay; assay type: functional
[16] = Cytotoxicity against human RPMI8226 cells assessed as cell growth at 10^-8 M after 24 hrs by SRB assay; assay type: functional; settings: RPMI-8226, 24 h, read-out: Activity
SR = experiment: Cytotoxicity against human SR cells assessed as cell growth at 10^-8 M after 24 hrs by SRB assay; assay type: functional; settings: read-out: Activity
KM12 [17] = experiment: Cytotoxicity against human KM12 cells assessed as cell growth at 10^-8 M after 24 hrs by SRB assay; assay type: functional; settings: KM12, 24 h, read-out: Activity
[18] = Cytotoxicity against human SW620 cells assessed as cell growth at 10^-8 M after 24 hrs by SRB assay; assay type: functional; settings: SW-620, 24 h, read-out: Activity
[19] = Cytotoxicity against human OVCAR4 cells assessed as cell growth at 10^-8 M after 24 hrs by SRB assay; assay type: functional; settings: OVCAR-4, 24 h, read-out: Activity
[20] = Cytotoxicity against human RXF393 cells assessed as cell growth at 10^-5 M after 24 hrs by SRB assay; assay type: functional; settings: RXF 393, 24 h, read-out: Activity
[21] = Cytotoxicity against human SNB75 cells assessed as growth inhibition at 10 uM after 24 hrs by SRB assay; assay type: functional; settings: SNB-75, 24 h, read-out: GI
[22] = read-out: LC50 (the source's name)
[23] = read-out: pLC50 (the source's name) (converted)

O=C(Nc1cc(-c2cccnc2)nc(NCCCN2CCOCC2)n1)c1cc(Br)cc(C(F)(F)F)c1
growth at 0.01 µM [1]: 92% | growth at 0.01 µM [2]: 93% | growth at 0.1 µM (K562): 91% | growth at 100 µM [3]: -24% | growth at 100 µM (EKVX): -89% | growth at 0.1 µM [4]: 90% | IC50 [5]: 1.97 µM | GI50 ([5]; read-out: GI50): 1.97 µM | CC50 [5, 22]: 29.9 µM | TGI ([5]; read-out: TGI): 7.62 µM | GI50 ([5]; read-out: pGI50 (converted)): 1.95 µM | CC50 [5, 23]: 30.2 µM | TGI ([5]; read-out: pTGI (converted)): 7.59 µM | GI50 ([6]; read-out: GI50): 1.77 µM | CC50 [6, 22]: 6.79 µM | TGI ([6]; read-out: TGI): 3.47 µM | GI50 ([6]; read-out: pGI50 (converted)): 1.78 µM | CC50 [6, 23]: 6.76 µM | TGI ([6]; read-out: pTGI (converted)): 3.47 µM | IC50 [7]: 1.92 µM | GI50 ([7]; read-out: GI50): 1.92 µM | CC50 [7, 22]: 19.3 µM | TGI ([7]; read-out: TGI): 5.28 µM | GI50 ([7]; read-out: pGI50 (converted)): 1.91 µM | CC50 [7, 23]: 19.5 µM | TGI ([7]; read-out: pTGI): 5.25 µM | GI50 (U-251; read-out: GI50): 2.05 µM | CC50 (U-251; [22]): 9.04 µM | TGI (U-251; read-out: TGI): 4.3 µM | GI50 (U-251; read-out: pGI50 (converted)): 2.04 µM | CC50 (U-251; [23]): 9.12 µM | TGI (U-251; read-out: pTGI (converted)): 4.27 µM | growth at 100 µM (NCI-H322M): -90% | growth at 100 µM [8]: -99% | growth at 100 µM (A498): -91% | growth at 100 µM [9]: -35% | growth at 1 µM (HT-29): 94% | growth at 1 µM (KM12 [10]): 96% | growth at 1 µM [11]: 95% | growth at 1 µM [12]: 97% | growth at 1 µM [13]: 105% | growth at 1 µM [14]: 74% | growth at 1 µM [15]: 82% | growth at 1 µM (MDA-MB-231): 87% | GI50 (SK-MEL-2; read-out: GI50): 4.52 µM | CC50 (SK-MEL-2; [22]): 45.8 µM | TGI (SK-MEL-2; read-out: TGI): 17 µM | GI50 (SK-MEL-2; read-out: pGI50 (converted)): 4.47 µM | CC50 (SK-MEL-2; [23]): 45.7 µM | TGI (SK-MEL-2; read-out: pTGI (converted)): 17 µM | IC50 (SK-MEL-28): 1.73 µM | GI50 (SK-MEL-28; read-out: GI50): 1.73 µM | CC50 (SK-MEL-28; [22]): 7.02 µM | TGI (SK-MEL-28; read-out: TGI): 3.48 µM | GI50 (SK-MEL-28; read-out: pGI50 (converted)): 1.74 µM | CC50 (SK-MEL-28; [23]): 7.08 µM | TGI (SK-MEL-28; read-out: pTGI (converted)): 3.47 µM | GI50 (ACHN; read-out: GI50): 3.04 µM | CC50 (ACHN; [22]): 44.6 µM | TGI (ACHN; read-out: TGI): 11.3 µM | GI50 (ACHN; read-out: pGI50 (converted)): 3.02 µM | CC50 (ACHN; [23]): 44.7 µM | TGI (ACHN; read-out: pTGI (converted)): 11.2 µM | GI50 (CCRF-CEM; read-out: GI50): 3.54 µM | CC50 (CCRF-CEM; [22]): 93.4 µM | TGI (CCRF-CEM; read-out: TGI): 12.9 µM | GI50 (CCRF-CEM; read-out: pGI50 (converted)): 3.55 µM | CC50 (CCRF-CEM; [23]): 93.3 µM | TGI (CCRF-CEM; read-out: pTGI (converted)): 12.9 µM | growth at 0.01 µM [16]: 103% | growth at 0.01 µM (SR): 106% | growth at 0.01 µM (KM12 [17]): 99% | growth at 0.01 µM [18]: 98% | growth at 0.01 µM [19]: 95% | growth at 10 µM [20]: -73%

COCCCNc1nc(NC(=O)c2cc(OC)cc(OC)c2)cc(-c2cccnc2)n1
inhibition of growth at 10 µM [21]: 26.9%

From ChEMBL document CHEMBL3774345, “Synthesis of new diarylamides with pyrimidinyl pyridine scaffold and evaluation of their anti-proliferative effect on cancer cell lines” (Bioorg Med Chem Lett, 2016)
